The results in this text go back to patent US7803930B2, “Antisense modulation of apolipoprotein B-expression” (Isis Pharmaceuticals, Inc., priority 2002, dated 2010).

In the oligonucleotide strings, read from the 5' end, every base follows the letter of its sugar. An asterisk marks phosphorothioate; unmarked linkages are phosphodiester. Other units and linkages are bracketed, terminal groups are in braces. A string of capitals states the bases alone. e = 2'-O-(2-methoxyethyl) (MOE); [5mC] = 5-methylcytosine; d = 2'-deoxy (DNA)

Series [1] concerns apolipoprotein B mRNA. Put plainly: ob/ob mice (Example 50): apolipoprotein B mRNA levels in liver. Format: in vivo, mouse. The settings on record: high fat high cholesterol diet, 50 mg/kg i.p. twice a week, six weeks. The method, boiled down:
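Ob/ob mice on 60% kcal fat diet with 0.15% cholesterol received 50 mg/kg oligonucleotide i.p. twice weekly for six weeks, with saline and control oligonucleotides.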

Series [2] in a line: High fat fed mice (Example 51): total, LDL- and HDL-cholesterol levels. Type of series: in vivo, mouse. The following applies: 50 mg/kg i.p. twice weekly. As for the experimental part: In a further embodiment of the invention, the inhibition of apolipoprotein B mRNA in mice was compared to liver oligonucleotide concentration, total cholesterol, LDL-cholesterol and HDL-cholesterol. Male C57Bl/6 mice receiving a high fat diet (60% fat) were evaluated over the course of 6 weeks for the effects of treatment with twice weekly intraperitoneal injections of 50 mg/kg ISIS 147764 (SEQ ID NO: 109) or 50 mg/kg of the control oligonucleotide ISIS 141923 (SEQ ID NO: 858). Control animals received saline treatment. Animals were sacrificed after 2 days, 1, 2, 4 and 6 weeks of treatment. Each treatment group at each time point consisted of 8 mice.
Target expression in liver was measured by real-time PCR as described by other examples herein and is expressed as percent inhibition relative to saline treated mice. Total, LDL- and HDL-cholesterol levels were measured by routine clinical analysis using an Olympus Clinical Analyzer (Olympus America Inc., Melville, N.Y.) and are presented in mg/dL. Results from saline-treated animals are shown for comparison. Intact oligonucleotide in liver tissue was measured by capillary gel electrophoresis and is presented as micrograms of oligonucleotide per gram of tissue.
The oligonucleotide treatments described in this example were duplicated to investigate the extent to which effects of ISIS 147764 persist following cessation of treatment. Mice were treated as described, and sacrificed 1, 2, 4, 6 and 8 weeks following the cessation of oligonucleotide treatment.

The test system of series [3] is apolipoprotein B mRNA. Put plainly: High fat fed C57BL/6 mice, 6 week timecourse: target mRNA levels in liver. The following applies: six weeks. Type of series: in vivo, mouse. As for the experimental part: Male C57BL/6 mice (n=8) receiving a high fat diet (60% kcal fat) were evaluated over the course of 6 weeks for the effects of treatment with the antisense oligonucleotide, ISIS 147764. Control animals received saline treatment (50 mg/kg). A subset of animals received a daily oral dose (20 mg/kg) atorvastatin calcium (Lipitor®, Pfizer Inc.). All mice, except atorvastatin-treated animals, were dosed intraperitoneally every three days (twice a week), after fasting overnight, with 5, 25, 50 mg/kg ISIS 147764 (SEQ ID No: 109) or saline (50 mg/kg) for six weeks. Serum cholesterol and lipoproteins were analyzed at 0, 2 and 6 week interim timepoints. At study termination, animals were sacrificed 48 hours after the final injections and evaluated for levels of target mRNA levels in liver, cholesterol, lipoprotein, triglyceride, liver enzyme (AST and ALT) and serum glucose levels as well as body, liver, spleen and fat pad weights.
Male C57BL/6 mice (n=8) receiving a high fat diet (60% kcal fat) were evaluated over the course of 6 weeks for the effects of ISIS 147764 on mRNA expression. Control animals received saline treatment (50 mg/kg). Mice were dosed intraperitoneally every three days (twice a week), after fasting overnight, with 5, 25, 50 mg/kg ISIS 147764 (SEQ ID No: 109) or saline (50 mg/kg) for six weeks. At study termination, animals were sacrificed 48 hours after the final injections and evaluated for levels of target mRNA levels in liver.

The test system of series [4] is apolipoprotein B mRNA. Put plainly: Lean vs high fat fed C57BL/6 mice (Example 20): target mRNA levels in liver. Format: in vivo, mouse. The settings on record: 50 mg/kg i.p. every three days, six weeks. The procedure:
Male C57BL/6 mice were divided into two matched groups; (1) wild-type control animals (lean animals) and (2) animals receiving a high fat diet (60% kcal fat). Control animals received saline treatment and were maintained on a normal rodent diet. After overnight fasting, mice from each group were dosed intraperitoneally every three days with saline or 50 mg/kg ISIS 147764 (SEQ ID No: 109) for six weeks. At study termination and forty eight hours after the final injections, animals were sacrificed and evaluated for target mRNA levels in liver, cholesterol and triglyceride levels, liver enzyme levels and serum glucose levels.

For series [5], the system named is human apolipoprotein B protein. Put plainly: Transgenic mice dosing study (Example 52): ELISA of human apolipoprotein B protein in liver. Type of series: in vivo, human transgene in mouse. On the technique in general: In an ELISA, binding on a coated surface is turned into a signal by an enzyme label.
Series [6] is described as follows: Transgenic mice dosing study (Example 52): serum ALT and AST levels. Type of series: in vivo, mouse. The following applies: 10 or 25 mg/kg.
Where [7] appears, read: high fat fed male C57Bl/6 mice, treatment period 1 week.
The mark [8] stands for this setting: high fat fed male C57Bl/6 mice, treatment period 2 weeks.
Where [9] appears, read: high fat fed male C57Bl/6 mice, treatment period 4 weeks.
Where [10] appears, read: high fat fed male C57Bl/6 mice, treatment period 6 weeks.
Where [11] appears, read: high fat fed male C57Bl/6 mice, treatment period 2 days.
Where [12] appears, read: high fat fed mice, 1 week after cessation of dosing.
Where [13] appears, read: high fat fed mice, 2 weeks after cessation of dosing.
Setting [14] is: high fat fed mice, 4 weeks after cessation of dosing.
Setting [15] is: high fat fed mice, 6 weeks after cessation of dosing.
Where [16] appears, read: high fat fed mice, 8 weeks after cessation of dosing.

For “147764 (eG*eT*e[5mC]*e[5mC]*e[5mC]*dT*dG*dA*dA*dG*dA*dT*dG*dT*d[5mC]*eA*eA*eT*eG*e[5mC]) [compound 147764]”, the “apolipoprotein B mRNA levels” value in the series with apolipoprotein B mRNA [1] is “able to lower”. Also, the “mRNA % control ApoB” value in the series with apolipoprotein B mRNA [1] (liver) was found to be 43.1 % control. For the same substance, the HDL-cholesterol in series [2] (setting [7]) was found to be 107 mg/dL; in series [2] (setting [8]), 105 mg/dL; in series [2] (setting [9]), 66 mg/dL; in series [2] (setting [10]) it was 64 mg/dL; in series [2] (setting [11]) it was 76 mg/dL; in series [2] (setting [12]) it was 51 mg/dL. Moreover, the HDL-cholesterol in series [2] (setting [13]) amounted to 49 mg/dL; in series [2] (setting [14]), 79 mg/dL; in series [2] (setting [15]) it was 100 mg/dL; in series [2] (setting [16]) it was 94 mg/dL. The LDL-cholesterol in series [2] (setting [7]) is listed as 19 mg/dL; in series [2] (setting [8]) it was 14 mg/dL; in series [2] (setting [9]), 7 mg/dL; in series [2] (setting [10]) it was 7 mg/dL; in series [2] (setting [11]) it was 7 mg/dL; in series [2] (setting [12]), 14 mg/dL. Besides, the LDL-cholesterol in series [2] (setting [13]) came out at 14 mg/dL; in series [2] (setting [14]), 18 mg/dL; in series [2] (setting [15]), 24 mg/dL; in series [2] (setting [16]), 21 mg/dL. For the same substance, the Total cholesterol worked out at 128 mg/dL in series [2] (setting [7]); 121 mg/dL in series [2] (setting [8]); 75 mg/dL in series [2] (setting [9]); 73 mg/dL in series [2] (setting [10]); 101 mg/dL in series [2] (setting [11]); 69 mg/dL in series [2] (setting [12]). Further, the Total cholesterol is given as 67 mg/dL in series [2] (setting [13]), 111 mg/dL in series [2] (setting [14]), 138 mg/dL in series [2] (setting [15]) and 135 mg/dL in series [2] (setting [16]).

On to “GTCCCTGAAGATGTCAATGC (2'-MOE gapmer, further chemistry not given here) [ISIS 147764]”, for which the “reduction of target mRNA levels in liver” value with apolipoprotein B mRNA [3] (5 mg/kg i.p. every three days) was 15%; in the series on apolipoprotein B mRNA [3] (25 mg/kg i.p. every three days), 75%; in the series with apolipoprotein B mRNA [3] (50 mg/kg i.p. every three days) it was 88%. For the same substance, the “Percent Change mRNA” value in the series with apolipoprotein B mRNA [4] (High Fat Group) was −87%; with apolipoprotein B mRNA [4] (Lean-control group) it was −73%.

Turning to “ISIS 301012: SEQ ID NO: 247, antisense oligonucleotide targeted to human apolipoprotein B (antisense GCCTCAGTCTGCTTCGCACC; chemistry not given here)”, the “reduction in human apolipoprotein B protein in liver (ELISA)” value in series [5] (10 mg/kg) was 80%; in series [5] (20 mg/kg (so in the source)), 82%. In series [6], the “AST and ALT levels in serum” value was “increased, yet did not exceed normal levels”.
